The values that follow come from paper PMC11069232, “NB compounds are potent and efficacious FOXM1 inhibitors in high-grade serous ovarian cancer cells” (Journal of Ovarian Research, 2024).

The term IC50 denotes the point on the concentration scale where inhibition reaches its midpoint.

Where two headings read alike, the source gives them in different places.

Type in all cases: cell-based, human
Test [1] deals with CAOV3 cells. In words: CyQuant cell viability assay, CAOV3. To be noted: CAOV3; for IC50: CyQuant. The method, then: (§1) Cells were seeded into 96-well plates and treated with serial dilutions with the designated compounds for 72 h. Medium was then removed from the wells, and the cells were frozen at -80 °C for storage. After thawing, cell viability was analyzed using the CyQUANT™ Cell Proliferation Assay for cells in culture (Invitrogen, ThermoFisher Scientific, Waltham, MA, USA), according to manufacturer’s instructions. The CyQuant assay utilizes a DNA binding fluorescent dye, and the signal is proportional to the number of live cells, which thus reflects the effect of drug treatment on both cell proliferation and cytotoxicity. To integrate these two measures (proliferation and cytotoxicity) into one simple term, we refer to CyQuant data as a measure of cell viability. Fluorescence intensity was measured using POLARstar OPTIMA microplate multi-detection plate reader (BMG LabTech, Cary, NC, USA) with settings specified by the manufacturer’s instructions.

Test [2] relates to OVCAR4 cells. Nature of the test: CyQuant cell viability assay, OVCAR4. As to conditions: OVCAR4; for IC50: CyQuant. The procedure:
as §1

Test [3] deals with CAOV3 cells. Nature of the test: Drug washout study, CyQuant cell viability. As to conditions: Fig. 7E-F. The method, then:
as §1
To assess FOXM1 protein expression, cells were seeded into 6-well plates and treated with DMSO or NB compounds the next day. At 3- or 6-h post-treatment, media was aspirated and cells were washed with PBS and incubated with drug-free media until reaching 24, 48, or 72 h post the initial treatment. At time points post-treatment, protein was isolated from washout and no washout (i.e., continuous treatment) treatment conditions and used for western blotting. To assess the effects of drug washout on cell viability, cells were seeded in 96-well plates, treated as described above, and cell viability was assessed at 72 h post the initial treatment using CyQuant assays.

Test [4] has as its system FT282-C11 cells. Nature of the test: Caspase-3/7 activity assay, FT282-C11. To be noted: 24 h. The method, then: (§2) Cells were seeded into 6-well plates and treated with the designated compounds until the desired time point. Floating cells and trypsinized cells from the wells were collected, centrifuged at 500 × g, and washed with PBS. Cells were prepared using the Muse® Caspase-3/7 Kit (Luminex Corporation, Austin, TX, USA) according to the manufacturer’s instructions. Cells were analyzed by flow cytometry using the Guava® Muse® Cell Analyzer (Luminex Corporation).

For test [5], the system named is CAOV3 cells. In words: Caspase-3/7 activity assay, CAOV3. To be noted: 24 h. The procedure: as §2
The subject of test [6] is FOXM1 targets (CCNB1, PLK1, AURKB, CDC25B). In words: Western blot of FOXM1 target proteins in HGSOC cells. To be noted: CAOV3 and OVCAR4; low micromolar treatments. The method, then: Whole cell proteins were extracted using radio-immunoprecipitation assay (RIPA) buffer (1X PBS, 1% NP-40, 0.5% sodium deoxycholate, 0.1% sodium dodecyl sulfate [SDS]) supplemented with protease and phosphatase inhibitors (Sigma-Aldrich). Briefly, media was removed from cells, cells were washed in ice cold PBS, and cells were lysed for 15 min in RIPA buffer, collected from the plate, and sonicated. The resulting extracts were centrifuged at 4 °C for 10 min at 16,100 × g to remove cell debris. In some cases (e.g., when measuring apoptotic markers such as cleaved PARP) floating cells were isolated in parallel and combined with the remainder of the cell sample prior to protein extraction. Protein concentrations were determined using the Pierce™ BCA Protein Assay Kit (Fisher Scientific, Waltham, MA, USA).
Equivalent amounts of protein per well, as determined by BCA assays, were loaded into Invitrogen™ NuPAGE™ 4–12%, Bis–Tris, 1.5 mm, mini protein gels (Fisher Scientific) or 7.5% Mini-Protein TGX precast protein gels (Bio-Rad, Hercules, CA, USA), and subsequently transferred to 0.45 µm polyvinylidene difluoride (PVDF) membranes (Millipore Sigma, St. Louis, MO, USA), using a wet transfer system. […] Quantification of protein expression was performed using Fiji software.
For orientation: A western blot detects proteins with antibodies after separation by electrophoresis.

For test [7], the system named is FT282-C11 cells. Nature of the test: CyQuant cell viability assay, FT282-C11 (immortalized FTE control). The procedure: as §1
To investigate the cancer cell selectivity of FOXM1 inhibitors, we utilized the immortalized (FTE) cell line FT282-C11 as non-malignant, cell of origin matched control. […] We tested a sub-set of FOXM1 inhibitors, including the three NB compounds and the two most widely used FOXM1 inhibitors, thiostrepton and FDI-6.

In test [8] the test system is OVCAR4 cells. In words: Caspase-3/7 activity assay, OVCAR4. To be noted: 24 h. The procedure: as §2
In test [9] the test system is CAOV3 cells. In words: Incucyte kinetic analysis of live and dead cells. As to conditions: 0.1 μM. The method, then:
CAOV3 cells were seeded into 96-well plates in DMEM media containing Incucyte Nuclight Rapid Red Dye (Sartorius, Bohemia, NY, USA, Cat #4717) 1:1,000 (for live cell nuclear labeling) and Incucyte Cytotox Green Dye (Sartorius Cat #4633) 250 μM (for counting of dead cells). The following day, cells were treated with DMSO or NB compounds at 0.1, 0.5 or 1.0 μM concentrations. After treatment, cells were incubated in a Incucyte S3 time lapse imager (Sartorius). We obtained 5 pictures per well every 2 h, for a total of 72 h. Data were analyzed and plotted using Incucyte Live-cell Imaging and Analysis software.

[10] abbreviates: % loss of cell viability at maximum tested concentration, Table 4.
Where [11] appears, read: % loss of cell viability at the maximum tested drug concentration (printed in parentheses in the cell), Table 3.
[12] abbreviates: cell viability, 72 h, Table 3, read-out: Potency [IC50 (µM)].

As for `CC[N+](C)(CC)CCCCCCOc1ccc(C(c2ccc(OCCCCCC[N+](C)(CC)CC)cc2)=C2C3C[C@H]4C[C@@H](C3)C[C@H]2C4)cc1` [NB-115], the Efficacy in the test with CAOV3 cells [1] (setting [10]) is 100%; in the test on OVCAR4 cells [2] (setting [10]), 85%; with FT282-C11 cells [7] (FT282-C11, % loss of cell viability at maximum tested concentration, Table 4), 100%. The “% Efficacy (maximum dose)” value is 100% (10 μM) in the test with CAOV3 cells [1] (setting [11]) and 85% (10 μM) in the test on OVCAR4 cells [2] (setting [11]). Also, the half-maximal inhibitory concentration (IC50) is 0.49 µM in the test with CAOV3 cells [1] (Table 4, read-out: IC50); 0.49 µM with CAOV3 cells [1] (setting [12]); 0.56 µM in the test on OVCAR4 cells [2] (Table 4, read-out: IC50); 0.56 µM in the test on OVCAR4 cells [2] (setting [12]); 830 nM with CAOV3 cells [3] (continuous drug exposure 72 h, viability at 72 h, read-out: IC50 (CAOV3), no washout (72h)); 2150 nM in the test with CAOV3 cells [3] (washout after 3 h, viability at 72 h post initial treatment, read-out: IC50 (CAOV3), 3 h drug exposure then washout (3h)). Further, the IC50 in the test on CAOV3 cells [3] (washout after 6 h, viability at 72 h post initial treatment, read-out: IC50 (CAOV3), 6 h drug exposure then washout (6h)) was determined as 2300 nM; with FT282-C11 cells [7] (FT282-C11, CyQuant, Table 4, read-out: IC50), 3800 nM. The figures for the “caspase 3/7 activity” value in the test with FT282-C11 cells [4], with CAOV3 cells [5] and in the test on OVCAR4 cells [8] were “but not in FT282-C11 cells”, “robust increase in caspase 3/7 activity” and “robust increase in caspase 3/7 activity”, respectively. Further, in test [6], the “FOXM1 targets at the protein level” value is reported as “suppressed FOXM1 targets at the protein level”. For the same compound, the “selectivity for HGSOC cells” value with FT282-C11 cells [7] (HGSOC cells vs FT282-C11, summary of Table 4) is recorded as “approximately tenfold”. The “Fold HGSOC cell selectivity” value in the test with FT282-C11 cells [7] (IC50 in FT282-C11 divided by the averaged IC50 values of CAOV3 and OVCAR4 cells) is 7.2. Also, the “cell proliferation compared to the DMSO control” value in the test on CAOV3 cells [9] is on record as “increased proliferation”.
